Data from patent US20240116985A1, “STAPLED PEPTIDES AND METHODS THEREOF” (priority 2020, published 2024).

Legend:
[1] = molecular target: T1, full-length beta-Catenin (Uniprot ID P35222) (Homo sapiens, UniProt P35222); test: Fluorescence polarization IC50 (beta-catenin / 5FAM-TCF4 10-53 competition); format: binding; details: fluorescence polarization; read-out: beta-Catenin FP IC50
T1 construct: 10 nM full-length beta-Catenin (Uniprot ID P35222)
T1 sequence (P35222 1-781): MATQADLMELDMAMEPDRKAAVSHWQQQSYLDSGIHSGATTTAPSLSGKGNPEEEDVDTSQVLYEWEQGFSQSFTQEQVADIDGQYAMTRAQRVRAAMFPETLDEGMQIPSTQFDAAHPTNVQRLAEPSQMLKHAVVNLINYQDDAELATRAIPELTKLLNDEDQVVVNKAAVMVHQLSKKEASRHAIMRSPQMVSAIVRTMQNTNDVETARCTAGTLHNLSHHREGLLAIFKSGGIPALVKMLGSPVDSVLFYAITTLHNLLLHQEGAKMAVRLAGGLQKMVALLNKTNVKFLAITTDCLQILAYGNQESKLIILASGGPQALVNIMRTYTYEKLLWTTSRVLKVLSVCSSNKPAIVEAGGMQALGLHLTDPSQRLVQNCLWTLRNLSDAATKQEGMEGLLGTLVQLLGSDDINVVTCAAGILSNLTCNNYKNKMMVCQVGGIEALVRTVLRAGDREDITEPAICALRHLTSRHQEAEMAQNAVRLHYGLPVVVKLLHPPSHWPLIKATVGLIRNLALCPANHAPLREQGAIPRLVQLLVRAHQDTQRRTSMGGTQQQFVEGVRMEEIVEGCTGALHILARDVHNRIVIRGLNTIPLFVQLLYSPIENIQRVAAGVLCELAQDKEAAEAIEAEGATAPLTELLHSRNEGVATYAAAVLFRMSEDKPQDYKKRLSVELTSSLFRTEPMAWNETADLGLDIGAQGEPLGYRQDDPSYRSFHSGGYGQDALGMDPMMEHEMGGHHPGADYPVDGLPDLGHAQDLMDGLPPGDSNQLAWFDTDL

[2] = molecular target: T2, beta-catenin/TCF4 engagement (Homo sapiens, UniProt P35222); test: Nano-BRET target engagement assay (B-cat-Halo & TCF4-Luc in HEK293 cells); format: cell-based; details: absolute IC50; read-out: NanoBRET Abs IC50
T2 construct: expressed in transfected cells; host or cells: HEK293
T2 sequence (P35222 1-781): T1 sequence (P35222 1-781)

IC50 [1] | IC50 [2] | SMILES
19 nM | 29700 nM | CCNC(=O)[C@H](CCC(N)=O)NC(=O)[C@H](Cc1csc2ccccc12)NC(=O)[C@H](Cc1ccccc1Cl)NC(=O)[C@]12CCN(C1)C(=O)OCCCC=CCCCC1(CCCC=CC[C@]3(CCCN3C(C)=O)C(=O)N[C@@H](CC(=O)O)C(=O)N[C@@H](CC(C)(C)C)C(=O)N1)C(=O)N[C@@H](CC(=O)O)C(=O)N[C@@H](CC(=O)O)C(=O)N[C@@H](C)C(=O)N[C@@H](C)C(=O)N[C@@H](Cc1ccccc1)C(=O)N[C@@H](CC(C)C)C(=O)N2 (stereo partly drawn) [I-1248, Ac-PL3-Asp-Npg-B5-Asp-Asp-Ala-Ala-Phe-Leu-PyrS2-2C1F-BztA-Gln-NHEt]
17 nM | 25200 nM | CC(=O)N1CCC[C@]12CC=CCCCC1(CCCC=CCCCOC(=O)N3CC[C@@](C(=O)N[C@@H](Cc4ccccc4Cl)C(=O)N[C@@H](Cc4csc5ccccc45)C(=O)N[C@H](CO)[C@@H](C)O)(C3)NC(=O)[C@H](CC(C)C)NC(=O)[C@H](Cc3ccccc3)NC(=O)[C@H](C)NC(=O)[C@H](C)NC(=O)[C@H](CC(=O)O)NC(=O)[C@H](CC(=O)O)NC1=O)NC(=O)[C@H](CC(C)(C)C)NC(=O)[C@H](CC(=O)O)NC2=O (stereo partly drawn) [I-1249, Ac-PL3-Asp-Npg-B5-Asp-Asp-Ala-Ala-Phe-Leu-PyrS2-2C1F-BztA-Thro1]
31 nM | > 20000 nM | CC(=O)N1CCC[C@]12CC=CCCCC1(CCCC=CCCCOC(=O)N3CC[C@@](C(=O)N[C@@H](Cc4ccccc4Cl)C(=O)N[C@@H](Cc4csc5ccccc45)C(=O)N[C@@H](C)CO)(C3)NC(=O)[C@H](CC(C)C)NC(=O)[C@H](Cc3ccccc3)NC(=O)[C@H](C)NC(=O)[C@H](C)NC(=O)[C@H](CC(=O)O)NC(=O)[C@H](CC(=O)O)NC1=O)NC(=O)[C@H](CC(C)(C)C)NC(=O)[C@H](CC(=O)O)NC2=O (stereo partly drawn) [I-1250, Ac-PL3-Asp-Npg-B5-Asp-Asp-Ala-Ala-Phe-Leu-PyrS2-2C1F-BztA-Alao1]
17 nM | > 20000 nM | C[C@@H]1NC(=O)[C@H](C)NC(=O)[C@H](CC(=O)O)NC(=O)[C@H](CC(=O)O)NC(=O)C2(CCCC=CCCCOC(=O)N3CC[C@@](C(=O)N[C@@H](Cc4ccccc4Cl)C(=O)N[C@@H](Cc4csc5ccccc45)C(=O)N[C@@H](C(N)=O)[C@H](C)O)(C3)NC(=O)[C@H](CC(N)=O)NC(=O)[C@H](Cc3ccccc3)NC1=O)CCCC=CC[C@]1(CCCN1S(C)(=O)=O)C(=O)N[C@@H](CC(=O)O)C(=O)N[C@@H](CC(C)(C)C)C(=O)N2 (stereo partly drawn) [I-1258, MeSO2-PL3-Asp-Npg-B5-Asp-Asp-Ala-Ala-Phe-Asn-PyrS2-2C1F-BztA-dThr-NH2]
10 nM | 18100 nM | COCCC(=O)N1CCC[C@]12CC=CCCCC1(CCCC=CCCCOC(=O)N3CC[C@@](C(=O)N[C@@H](Cc4ccccc4Cl)C(=O)N[C@@H](Cc4csc5ccccc45)C(=O)N[C@@H](C(N)=O)[C@H](C)O)(C3)NC(=O)[C@H](CC(N)=O)NC(=O)[C@H](Cc3ccccc3)NC(=O)[C@H](C)NC(=O)[C@H](C)NC(=O)[C@H](CC(=O)O)NC(=O)[C@H](CC(=O)O)NC1=O)NC(=O)[C@H](CC(C)(C)C)NC(=O)[C@H](CC(=O)O)NC2=O (stereo partly drawn) [I-1259, MeOPr-PL3-Asp-Npg-B5-Asp-Asp-Ala-Ala-Phe-Asn-PyrS2-2C1F-BztA-dThr-NH2]
198 nM | 28400 nM | CC(=O)N1CCC[C@]12CC=CCCCC1(CCCC=CCCCOC(=O)N3CC[C@@](C(=O)N[C@@H](Cc4ccccc4)C(=O)N[C@@H](Cc4csc5ccccc45)C(=O)N[C@@H](CO)C(N)=O)(C3)NC(=O)[C@H]([C@@H](C)O)NC(=O)[C@H](Cc3cccc(C(F)(F)F)c3)NC(=O)[C@H](C)NC(=O)[C@H](C)NC(=O)[C@H]([C@@H](C)O)NC(=O)[C@H](CC(=O)O)NC1=O)NC(=O)[C@H](CC(C)(C)C)NC(=O)[C@H](CC(=O)O)NC2=O (stereo partly drawn) [I-1268, Ac-PL3-Asp-Npg-B5-Asp-Thr-Ala-Ala-3F3MeF-Thr-PyrS2-Phe-BztA-Ser-NH2]
9 nM | 27800 nM | CC(=O)N1CCC[C@]12CC=CCCCC1(CCCC=CCCCOC(=O)N3CC[C@@](C(=O)N[C@@H](Cc4ccccc4Cl)C(=O)N[C@@H](Cc4csc5ccccc45)C(=O)N[C@@H](CCC(N)=O)C(N)=O)(C3)NC(=O)[C@H](CC(C)C)NC(=O)[C@H](Cc3ccccc3)NC(=O)[C@H](C)NC(=O)[C@H](CCCCNC(C)C)NC(=O)[C@H](CC(=O)O)NC(=O)[C@H](CC(=O)O)NC1=O)NC(=O)[C@H](CC(C)(C)C)NC(=O)[C@H](CC(=O)O)NC2=O (stereo partly drawn) [I-1275, Ac-PL3-Asp-Npg-B5-Asp-Asp-iPrLys-Ala-Phe-Leu-PyrS2-2C1F-BztA-Gln-NH2]
10 nM | > 20000 nM | CC(=O)N1CCC[C@]12CC=CCCCC1(CCCC=CCCCOC(=O)N3CC[C@@](C(=O)N[C@@H](Cc4ccccc4Cl)C(=O)N[C@@H](Cc4csc5ccccc45)C(=O)N[C@H](C(N)=O)[C@@H](C)O)(C3)NC(=O)[C@H](CC(C)C)NC(=O)[C@H](Cc3ccccc3)NC(=O)[C@H](C)NC(=O)[C@H](CCCCNC(C)C)NC(=O)[C@H](CC(=O)O)NC(=O)[C@H](CC(=O)O)NC1=O)NC(=O)[C@H](CC(C)(C)C)NC(=O)[C@H](CC(=O)O)NC2=O (stereo partly drawn) [I-1276, Ac-PL3-Asp-Npg-B5-Asp-Asp-iPrLys-Ala-Phe-Leu-PyrS2-2C1F-BztA-Thr-NH2]
17 nM | > 20000 nM | CC(=O)N1CCC[C@]12CC=CCCCC1(CCCC=CCCCOC(=O)N3CC[C@@](C(=O)N[C@@H](Cc4ccccc4Cl)C(=O)N[C@@H](Cc4csc5ccccc45)C(=O)N[C@@H](CC(C)C)C(N)=O)(C3)NC(=O)[C@H](CC(C)C)NC(=O)[C@H](Cc3ccccc3)NC(=O)[C@H](C)NC(=O)[C@H](CCCCNC(C)C)NC(=O)[C@H](CC(=O)O)NC(=O)[C@H](CC(=O)O)NC1=O)NC(=O)[C@H](CC(C)(C)C)NC(=O)[C@H](CC(=O)O)NC2=O (stereo partly drawn) [I-1277, Ac-PL3-Asp-Npg-B5-Asp-Asp-iPrLys-Ala-Phe-Leu-PyrS2-2C1F-BztA-Leu-NH2]
18 nM | 11300 nM | CC(=O)N1CCC[C@]12CC=CCCCC1(CCCC=CCCCCCC[C@@](C)(C(=O)N[C@@H](Cc3ccccc3)C(=O)N[C@@H](Cc3csc4ccccc34)C(=O)N[C@@H](CCC(N)=O)C(N)=O)NC(=O)[C@H](CCO)NC(=O)[C@H](Cc3ccccc3)NC(=O)[C@H](C)NC(=O)[C@H](C)NC(=O)[C@H](CC(=O)O)NC(=O)[C@H](CC(=O)O)NC1=O)NC(=O)[C@H](CC(C)(C)C)NC(=O)[C@H](CC(=O)O)NC2=O (stereo partly drawn) [I-1388, Ac-PL3-Asp-Npg-B5-Asp-Asp-Ala-Ala-Phe-Hse-S8-Phe-BztA-Gln-NH2]
9 nM | 9200 nM | CC(=O)N1CCC[C@]12CC=CCCCC1(CCCC=CCCCCCC[C@@](C)(C(=O)N[C@@H](Cc3ccsc3)C(=O)N[C@@H](Cc3csc4ccccc34)C(=O)N[C@@H](CCC(N)=O)C(N)=O)NC(=O)[C@H](CCO)NC(=O)[C@H](Cc3ccccc3)NC(=O)[C@H](C)NC(=O)[C@H](C)NC(=O)[C@H](CC(=O)O)NC(=O)[C@H](CC(=O)O)NC1=O)NC(=O)[C@H](CC(C)(C)C)NC(=O)[C@H](CC(=O)O)NC2=O (stereo partly drawn) [I-1389, Ac-PL3-Asp-Npg-B5-Asp-Asp-Ala-Ala-Phe-Hse-S8-3Thi-BztA-Gln-NH2]
11 nM | 35000 nM | CC(=O)N1CCC[C@]12CC=CCCCC1(CCCC=CCCCCCC[C@@](C)(C(=O)N[C@@H](Cc3cccs3)C(=O)N[C@@H](Cc3csc4ccccc34)C(=O)N[C@@H](CCC(N)=O)C(N)=O)NC(=O)[C@H](CC(N)=O)NC(=O)[C@H](Cc3ccccc3)NC(=O)[C@H](C)NC(=O)[C@H](C)NC(=O)[C@H](CC(=O)O)NC(=O)[C@H](CC(=O)O)NC1=O)NC(=O)[C@H](CC(C)(C)C)NC(=O)[C@H](CC(=O)O)NC2=O (stereo partly drawn) [I-1391, Ac-PL3-Asp-Npg-B5-Asp-Asp-Ala-Ala-Phe-Asn-S8-2Thi-BztA-Gln-NH2]
13 nM | 18300 nM | CC(=O)N1CCC[C@]12CC=CCCCC1(CCCC=CCCCCCC[C@@](C)(C(=O)N[C@@H](Cc3cccs3)C(=O)N[C@@H](Cc3csc4ccccc34)C(=O)N[C@@H](CCC(N)=O)C(N)=O)NC(=O)[C@H](CCO)NC(=O)[C@H](Cc3ccccc3)NC(=O)[C@H](C)NC(=O)[C@H](C)NC(=O)[C@H](CC(=O)O)NC(=O)[C@H](CC(=O)O)NC1=O)NC(=O)[C@H](CC(C)(C)C)NC(=O)[C@H](CC(=O)O)NC2=O (stereo partly drawn) [I-1392, Ac-PL3-Asp-Npg-B5-Asp-Asp-Ala-Ala-Phe-Hse-S8-2Thi-BztA-Gln-NH2]
34 nM | 18600 nM | CC(=O)N1CCC[C@]12CC=CCCCC1(CCCC=CCCCCCC[C@@](C)(C(=O)N[C@@H](Cc3cccs3)C(=O)N[C@@H](Cc3csc4ccccc34)C(=O)N[C@H](CO)[C@@H](C)O)NC(=O)[C@H](CCO)NC(=O)[C@H](Cc3ccccc3)NC(=O)[C@H](C)NC(=O)[C@H](C)NC(=O)[C@H](CC(=O)O)NC(=O)[C@H](CC(=O)O)NC1=O)NC(=O)[C@H](CC(C)(C)C)NC(=O)[C@H](CC(=O)O)NC2=O (stereo partly drawn) [I-1393, Ac-PL3-Asp-Npg-B5-Asp-Asp-Ala-Ala-Phe-Hse-S8-2Thi-BztA-Thro1]
